Several values for one entry are separate records, joined by “and”; a condition that tells them apart may be missing. Equal entries are not always repeated.

This test has as its target T1, hTRPC6 (Homo sapiens, UniProt Q9Y210).
T1 construct: expressed in transfected cells
T1 sequence (Q9Y210 1-931): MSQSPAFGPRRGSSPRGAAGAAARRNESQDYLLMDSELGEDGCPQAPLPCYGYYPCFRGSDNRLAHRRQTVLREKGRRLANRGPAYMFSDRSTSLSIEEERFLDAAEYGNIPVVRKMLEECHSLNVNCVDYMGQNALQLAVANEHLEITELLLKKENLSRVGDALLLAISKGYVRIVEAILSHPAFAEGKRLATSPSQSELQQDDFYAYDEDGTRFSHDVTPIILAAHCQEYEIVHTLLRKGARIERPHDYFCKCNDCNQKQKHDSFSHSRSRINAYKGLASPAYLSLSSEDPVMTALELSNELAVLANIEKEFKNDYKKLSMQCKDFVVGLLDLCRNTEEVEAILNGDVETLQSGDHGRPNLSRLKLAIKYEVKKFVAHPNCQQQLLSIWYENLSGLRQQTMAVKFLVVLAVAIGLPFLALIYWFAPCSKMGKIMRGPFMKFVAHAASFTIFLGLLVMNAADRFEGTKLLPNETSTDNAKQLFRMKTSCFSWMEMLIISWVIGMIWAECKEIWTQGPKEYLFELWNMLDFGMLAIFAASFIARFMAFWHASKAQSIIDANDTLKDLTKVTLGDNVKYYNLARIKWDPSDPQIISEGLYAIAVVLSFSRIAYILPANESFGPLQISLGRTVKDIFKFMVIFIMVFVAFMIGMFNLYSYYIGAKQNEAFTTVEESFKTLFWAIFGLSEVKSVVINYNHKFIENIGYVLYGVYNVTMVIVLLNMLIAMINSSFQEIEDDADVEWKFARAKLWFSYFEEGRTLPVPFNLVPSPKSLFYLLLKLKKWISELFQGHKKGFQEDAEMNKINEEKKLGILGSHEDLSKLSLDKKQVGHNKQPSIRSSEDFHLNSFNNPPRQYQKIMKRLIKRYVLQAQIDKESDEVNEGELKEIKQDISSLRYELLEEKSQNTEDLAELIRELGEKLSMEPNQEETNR
The test is described as follows: Whole-cell patch clamp, AlF4- evoked TRPC6 currents. Type of test: cell-based. The method, then:
Cells were grown at 37°C in a humidified atmosphere (5% or 7% CO2) under standard cell culture conditions. Stable human embryonic kidney (HEK) cell lines expressing recombinant mTRPC4ß (GenBank accession number AAC05178); mTRPC5 (GenBank accession number NM_009428) or hTRPC6 (GenBank accession number AF080394) under the control of a tetracycline-inducible promoter were generated using the Flp-In T-Rex (FITR) system (Invitrogen, Karlsruhe, Germany). TRPC4/5/6 HEK-FITR cells were maintained in Dulbecco's modified eagle medium (DMEM, with glutaMAX I, 4.5 g/l glucose and […] sodium pyruvate) supplemented with 10% (v/v) fetal bovine serum (Biochrom, Berlin, Germany), 1 mM glutamine, 1 mM MEM sodium pyruvate, 40 µg/ml hygromycin (50 µg/ml for mTRPC5 HEK-FITR cells), and 15 µg/ml blasticidine HCl. Channel expression was induced by supplementing the growth medium for 18–24 h with 1 µg/ml doxycycline.
The whole-cell patch clamp technique was employed to measure ion currents from single cells. […]
Cells grown on poly-L-lysine-coated coverslips were continuously superfused with extracellular solution and substances were applied using an ALA BPS-8 perfusion system (ALA Scientific Instruments, Westbury, USA). […] Cells were held at −70 mV, and current-voltage (I–V) relationships were routinely measured every 2 or 3 s by applying voltage ramps (180 ms) from −100 mV to +80 mV. […]
For statistical analysis, analysis of variance was performed with Origin 6.0 software (Microcal Software Inc., Northampton, USA). […] IC50 were calculated with SigmaPlot (Systat software, San Jose, USA) using the sigmoidal Hill-model: f = 100 (C^n/(IC50 ^n+C^n)); where f is the inhibition, C is the applied drug concentration and n is the Hill coefficient. The half maximal effective concentration (EC50) of norgestimate-induced vasorelaxation was calculated analogously with R = y0+y1C^n/(EC50 ^n+C^n); where R is relaxation, yo and y1 are constants, C is the applied drug concentration and n is the Hill coefficient. Averaged data is expressed as means ± SEM.
Background: In patch-clamp work, channel activity is measured electrically.

For orientation: IC50 means the midpoint of a concentration-inhibition curve. In the case of `C#C[C@]1(OC(C)=O)CC[C@H]2[C@@H]3CCC4=CC(=NO)CC[C@@H]4[C@H]3CC[C@@]21CC` (mixture of isomers) [norgestimate], for the setting “10 µM, whole-cell patch clamp, AlF4- infusion”, the “Inhibition of TRPC6 currents” value was “almost completely inhibited”. For the same compound, the “Hill slope, TRPC6 current inhibition” value (fit to dose-response equation) came to 1.19. For the same compound, the IC50 (whole-cell patch clamp, AlF4- infusion, read-out: IC50, TRPC6 current inhibition) is 3.06 µM and ~3 µM.

The values above are taken from paper PMC3328449, “Inhibition of Diacylglycerol–Sensitive TRPC Channels by Synthetic and Natural Steroids” (PLoS ONE, 2012).
